Experimental data from the CheMixHub viscosity set.
± gives the uncertainty stated by the source.

Assay: xn = mol fraction of the nth substance listed

SMILES: CC[N+](CC)(CC)CC.Cc1ccc(S(=O)(=O)[O-])cc1 + CC(O)CO
- viscosity (298.15 K, 101 kPa, x1 = 0.2): 66.9 ± 0.9 mPa·s
- viscosity (303.15 K, 101 kPa, x1 = 0.2): 51.2 ± 0.5 mPa·s
- viscosity (308.15 K, 101 kPa, x1 = 0.2): 39.8 ± 0.5 mPa·s
- viscosity (313.15 K, 101 kPa, x1 = 0.2): 31.6 ± 0.4 mPa·s
- viscosity (318.15 K, 101 kPa, x1 = 0.2): 25.5 ± 0.3 mPa·s
- viscosity (323.15 K, 101 kPa, x1 = 0.2): 20.9 ± 0.3 mPa·s

SMILES: CCCc1ccccc1 + CCC(=O)O
- viscosity (308.15 K, 101.33 kPa, x2 = 0.0799): 0.7011 ± 0.0091 mPa·s
- viscosity (308.15 K, 101.33 kPa, x2 = 0.1548): 0.7021 ± 0.0089 mPa·s
- viscosity (308.15 K, 101.33 kPa, x2 = 0.2233): 0.7031 ± 0.0087 mPa·s
- viscosity (308.15 K, 101.33 kPa, x2 = 0.275): 0.7037 ± 0.0086 mPa·s
- viscosity (308.15 K, 101.33 kPa, x2 = 0.411): 0.7084 ± 0.0083 mPa·s
- viscosity (308.15 K, 101.33 kPa, x2 = 0.519): 0.7218 ± 0.0082 mPa·s
- viscosity (308.15 K, 101.33 kPa, x2 = 0.6192): 0.7357 ± 0.0081 mPa·s
- viscosity (308.15 K, 101.33 kPa, x2 = 0.7099): 0.753 ± 0.0081 mPa·s
- viscosity (308.15 K, 101.33 kPa, x2 = 0.7906): 0.7717 ± 0.0081 mPa·s
- viscosity (308.15 K, 101.33 kPa, x2 = 0.8664): 0.8012 ± 0.0082 mPa·s
- viscosity (308.15 K, 101.33 kPa, x2 = 0.9357): 0.8334 ± 0.0084 mPa·s

SMILES: C1CCOC1 + CCC(C)O
- viscosity (298.15 K, 101 kPa, x1 = 0.0637): 2.356 ± 0.049 mPa·s
- viscosity (298.15 K, 101 kPa, x1 = 0.1052): 2.02 ± 0.042 mPa·s
- viscosity (298.15 K, 101 kPa, x1 = 0.1565): 1.747 ± 0.036 mPa·s
- viscosity (298.15 K, 101 kPa, x1 = 0.2117): 1.467 ± 0.031 mPa·s
- viscosity (298.15 K, 101 kPa, x1 = 0.3052): 1.155 ± 0.024 mPa·s
- viscosity (298.15 K, 101 kPa, x1 = 0.4013): 0.9585 ± 0.02 mPa·s
- viscosity (298.15 K, 101 kPa, x1 = 0.4556): 0.8592 ± 0.018 mPa·s
- viscosity (298.15 K, 101 kPa, x1 = 0.4888): 0.8108 ± 0.017 mPa·s
- viscosity (298.15 K, 101 kPa, x1 = 0.5): 0.8021 ± 0.021 mPa·s
- viscosity (298.15 K, 101 kPa, x1 = 0.6054): 0.6741 ± 0.014 mPa·s
- viscosity (298.15 K, 101 kPa, x1 = 0.7009): 0.5953 ± 0.013 mPa·s
- viscosity (298.15 K, 101 kPa, x1 = 0.8036): 0.533 ± 0.011 mPa·s
- viscosity (298.15 K, 101 kPa, x1 = 0.8596): 0.5129 ± 0.011 mPa·s
- viscosity (298.15 K, 101 kPa, x1 = 0.9151): 0.4818 ± 0.01 mPa·s
- viscosity (298.15 K, 101 kPa, x1 = 0.9497): 0.4749 ± 0.01 mPa·s
- viscosity (313.15 K, 101 kPa, x1 = 0.0637): 1.464 ± 0.031 mPa·s
- viscosity (313.15 K, 101 kPa, x1 = 0.1052): 1.309 ± 0.027 mPa·s
- viscosity (313.15 K, 101 kPa, x1 = 0.1565): 1.153 ± 0.024 mPa·s
- viscosity (313.15 K, 101 kPa, x1 = 0.2117): 0.9942 ± 0.021 mPa·s
- viscosity (313.15 K, 101 kPa, x1 = 0.3052): 0.8235 ± 0.017 mPa·s
- viscosity (313.15 K, 101 kPa, x1 = 0.4013): 0.7044 ± 0.015 mPa·s
- viscosity (313.15 K, 101 kPa, x1 = 0.4556): 0.6537 ± 0.014 mPa·s
- viscosity (313.15 K, 101 kPa, x1 = 0.4888): 0.6218 ± 0.013 mPa·s
- viscosity (313.15 K, 101 kPa, x1 = 0.6054): 0.5395 ± 0.011 mPa·s
- viscosity (313.15 K, 101 kPa, x1 = 0.7009): 0.4897 ± 0.01 mPa·s
- viscosity (313.15 K, 101 kPa, x1 = 0.8036): 0.4512 ± 0.0096 mPa·s
- viscosity (313.15 K, 101 kPa, x1 = 0.8596): 0.4316 ± 0.0092 mPa·s
- viscosity (313.15 K, 101 kPa, x1 = 0.9151): 0.4075 ± 0.0087 mPa·s
- viscosity (313.15 K, 101 kPa, x1 = 0.9497): 0.4072 ± 0.0086 mPa·s

SMILES: CC(=O)Oc1ccccc1C(=O)O + CCC(C)O
- viscosity (293.15 K, 101 kPa, x1 = 0.0007): 3.623 ± 0.082 mPa·s
- viscosity (293.15 K, 101 kPa, x1 = 0.00094): 3.624 ± 0.082 mPa·s
- viscosity (293.15 K, 101 kPa, x1 = 0.00118): 3.626 ± 0.082 mPa·s
- viscosity (293.15 K, 101 kPa, x1 = 0.00141): 3.627 ± 0.082 mPa·s
- viscosity (293.15 K, 101 kPa, x1 = 0.00165): 3.628 ± 0.082 mPa·s
- viscosity (293.15 K, 101 kPa, x1 = 0.00189): 3.63 ± 0.082 mPa·s
- viscosity (293.15 K, 101 kPa, x1 = 0.00236): 3.632 ± 0.082 mPa·s
- viscosity (298.15 K, 101 kPa, x1 = 0.0007): 3.014 ± 0.069 mPa·s
- viscosity (298.15 K, 101 kPa, x1 = 0.00094): 3.015 ± 0.069 mPa·s
- viscosity (298.15 K, 101 kPa, x1 = 0.00118): 3.015 ± 0.069 mPa·s
- viscosity (298.15 K, 101 kPa, x1 = 0.00141): 3.016 ± 0.069 mPa·s
- viscosity (298.15 K, 101 kPa, x1 = 0.00165): 3.017 ± 0.069 mPa·s
- viscosity (298.15 K, 101 kPa, x1 = 0.00189): 3.018 ± 0.069 mPa·s
- viscosity (298.15 K, 101 kPa, x1 = 0.00236): 3.02 ± 0.069 mPa·s
- viscosity (303.15 K, 101 kPa, x1 = 0.0007): 2.525 ± 0.058 mPa·s
- viscosity (303.15 K, 101 kPa, x1 = 0.00094): 2.526 ± 0.058 mPa·s
- viscosity (303.15 K, 101 kPa, x1 = 0.00118): 2.527 ± 0.058 mPa·s
- viscosity (303.15 K, 101 kPa, x1 = 0.00141): 2.527 ± 0.058 mPa·s
- viscosity (303.15 K, 101 kPa, x1 = 0.00165): 2.528 ± 0.058 mPa·s
- viscosity (303.15 K, 101 kPa, x1 = 0.00189): 2.529 ± 0.059 mPa·s
- viscosity (303.15 K, 101 kPa, x1 = 0.00236): 2.531 ± 0.059 mPa·s
- viscosity (308.15 K, 101 kPa, x1 = 0.0007): 2.12 ± 0.05 mPa·s
- viscosity (308.15 K, 101 kPa, x1 = 0.00094): 2.121 ± 0.05 mPa·s
- viscosity (308.15 K, 101 kPa, x1 = 0.00118): 2.122 ± 0.05 mPa·s
- viscosity (308.15 K, 101 kPa, x1 = 0.00141): 2.123 ± 0.05 mPa·s
- viscosity (308.15 K, 101 kPa, x1 = 0.00165): 2.123 ± 0.05 mPa·s
- viscosity (308.15 K, 101 kPa, x1 = 0.00189): 2.124 ± 0.05 mPa·s
- viscosity (308.15 K, 101 kPa, x1 = 0.00236): 2.125 ± 0.05 mPa·s
- viscosity (310.15 K, 101 kPa, x1 = 0.0007): 1.974 ± 0.046 mPa·s
- viscosity (310.15 K, 101 kPa, x1 = 0.00094): 1.975 ± 0.046 mPa·s
- viscosity (310.15 K, 101 kPa, x1 = 0.00118): 1.976 ± 0.046 mPa·s
- viscosity (310.15 K, 101 kPa, x1 = 0.00141): 1.976 ± 0.047 mPa·s
- viscosity (310.15 K, 101 kPa, x1 = 0.00165): 1.977 ± 0.047 mPa·s
- viscosity (310.15 K, 101 kPa, x1 = 0.00189): 1.978 ± 0.047 mPa·s
- viscosity (310.15 K, 101 kPa, x1 = 0.00236): 1.979 ± 0.047 mPa·s
- viscosity (313.15 K, 101 kPa, x1 = 0.0007): 1.792 ± 0.043 mPa·s
- viscosity (313.15 K, 101 kPa, x1 = 0.00094): 1.793 ± 0.043 mPa·s
- viscosity (313.15 K, 101 kPa, x1 = 0.00118): 1.794 ± 0.043 mPa·s
- viscosity (313.15 K, 101 kPa, x1 = 0.00141): 1.795 ± 0.043 mPa·s
- viscosity (313.15 K, 101 kPa, x1 = 0.00165): 1.796 ± 0.043 mPa·s
- viscosity (313.15 K, 101 kPa, x1 = 0.00189): 1.797 ± 0.043 mPa·s
- viscosity (313.15 K, 101 kPa, x1 = 0.00236): 1.798 ± 0.043 mPa·s

SMILES: COc1ccccc1 + CCC(C)O
- viscosity (303.15 K, 101.33 kPa, x1 = 0.0999): 1.759 ± 0.016 mPa·s
- viscosity (303.15 K, 101.33 kPa, x1 = 0.2001): 1.366 ± 0.012 mPa·s
- viscosity (303.15 K, 101.33 kPa, x1 = 0.3001): 1.172 ± 0.01 mPa·s
- viscosity (303.15 K, 101.33 kPa, x1 = 0.3998): 1.068 ± 0.01 mPa·s
- viscosity (303.15 K, 101.33 kPa, x1 = 0.5): 1.001 ± 0.009 mPa·s
- viscosity (303.15 K, 101.33 kPa, x1 = 0.6001): 0.969 ± 0.009 mPa·s
- viscosity (303.15 K, 101.33 kPa, x1 = 0.7): 0.951 ± 0.008 mPa·s
- viscosity (303.15 K, 101.33 kPa, x1 = 0.8002): 0.934 ± 0.008 mPa·s
- viscosity (303.15 K, 101.33 kPa, x1 = 0.9): 0.918 ± 0.008 mPa·s
- viscosity (313.15 K, 101.33 kPa, x1 = 0.0999): 1.335 ± 0.012 mPa·s
- viscosity (313.15 K, 101.33 kPa, x1 = 0.2001): 1.068 ± 0.01 mPa·s
- viscosity (313.15 K, 101.33 kPa, x1 = 0.3001): 0.932 ± 0.009 mPa·s
- viscosity (313.15 K, 101.33 kPa, x1 = 0.3998): 0.862 ± 0.008 mPa·s
- viscosity (313.15 K, 101.33 kPa, x1 = 0.5): 0.843 ± 0.008 mPa·s
- viscosity (313.15 K, 101.33 kPa, x1 = 0.6001): 0.831 ± 0.007 mPa·s
- viscosity (313.15 K, 101.33 kPa, x1 = 0.7): 0.816 ± 0.007 mPa·s
- viscosity (313.15 K, 101.33 kPa, x1 = 0.8002): 0.803 ± 0.007 mPa·s
- viscosity (313.15 K, 101.33 kPa, x1 = 0.9): 0.792 ± 0.007 mPa·s
- viscosity (323.15 K, 101.33 kPa, x1 = 0.0999): 1.023 ± 0.01 mPa·s
- viscosity (323.15 K, 101.33 kPa, x1 = 0.2001): 0.852 ± 0.008 mPa·s
- viscosity (323.15 K, 101.33 kPa, x1 = 0.3001): 0.769 ± 0.007 mPa·s
- viscosity (323.15 K, 101.33 kPa, x1 = 0.3998): 0.745 ± 0.007 mPa·s
- viscosity (323.15 K, 101.33 kPa, x1 = 0.5): 0.739 ± 0.007 mPa·s
- viscosity (323.15 K, 101.33 kPa, x1 = 0.6001): 0.731 ± 0.007 mPa·s
- viscosity (323.15 K, 101.33 kPa, x1 = 0.7): 0.723 ± 0.007 mPa·s
- viscosity (323.15 K, 101.33 kPa, x1 = 0.8002): 0.709 ± 0.006 mPa·s
- viscosity (323.15 K, 101.33 kPa, x1 = 0.9): 0.698 ± 0.006 mPa·s
